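Five concentrations, 48 hours, 96-well plates. GI50: concentration for 50% inhibition of growth. TGI denotes the concentration required for complete inhibition of growth.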
How the values were obtained:
Experiment in all cases: DTP human tumour cell line panel, 48 h
[1] = system: 786-0 renal
[2] = system: A498 renal
[3] = system: A549 NSCLC
[4] = system: ACHN renal
[5] = system: BT-549 breast
[6] = system: CAKI-1 renal
[7] = system: CCRF-CEM leukemia
[8] = system: COLO 205 colon
[9] = system: DU-145 prostate
[10] = system: HCC-2998 colon
[11] = system: HCT-116 colon
[12] = system: HCT-15 colon
[13] = system: HL-60(TB) leukemia
[14] = system: HOP-62 NSCLC
[15] = system: HOP-92 NSCLC
[16] = system: HS 578T breast
[17] = system: HT29 colon
[18] = system: IGROV1 ovarian
[19] = system: K-562 leukemia
[20] = system: KM12 colon
[21] = system: LOX IMVI melanoma
[22] = system: M14 melanoma
[23] = system: MALME-3M melanoma
[24] = system: MCF7 breast
[25] = system: MDA-MB-231 breast
[26] = system: MDA-MB-435
[27] = system: MOLT-4 leukemia
[28] = system: NCI-H226 lung
[29] = system: NCI-H23 lung
[30] = system: NCI-H460 lung
[31] = system: NCI-H522 lung
[32] = system: NCI/ADR-RES ovarian
[33] = system: OVCAR-3 ovarian
[34] = system: OVCAR-4 ovarian
[35] = system: OVCAR-5 ovarian
[36] = system: OVCAR-8 ovarian
[37] = system: PC-3 prostate
[38] = system: RPMI-8226 leukemia
[39] = system: SF-268 CNS
[40] = system: SF-295 CNS
[41] = system: SF-539 CNS
[42] = system: SK-MEL-2 melanoma
[43] = system: SK-MEL-28 melanoma
[44] = system: SK-MEL-5 melanoma
[45] = system: SK-OV-3 ovarian
[46] = system: SN12C renal
[47] = system: SNB-19 CNS
[48] = system: SNB-75 CNS
[49] = system: SW-620 colon
[50] = system: T-47D breast
[51] = system: TK-10 renal
[52] = system: U251 CNS
[53] = system: UACC-257 melanoma
[54] = system: UACC-62 melanoma
[55] = system: UO-31 renal

In the case of COc1ccc2nc(C)cc(Nc3ccccc3O)c2c1, the GI50 [1] is reported as 18.1 µM, the TGI [1] is reported as 42.1 µM and the GI50 [2] is reported as 8.07 µM. The TGI [2] was 45.2 µM, the GI50 [3] was 38 µM and the TGI [3] was > 100 µM. For the same compound, the GI50 [4] was 32.1 µM, the TGI [4] was > 100 µM and the GI50 [5] was 37.1 µM. For the same compound, the TGI [5] was > 100 µM, the GI50 [6] was 36.1 µM and the TGI [6] was > 100 µM. For the same compound, the GI50 [7] was 21.7 µM, the TGI [7] was > 100 µM and the GI50 [8] was 18.3 µM. For the same compound, the TGI [8] was 36.5 µM, the GI50 [9] was 45.3 µM and the TGI [9] was > 100 µM. For the same compound, the GI50 [10] was 17.6 µM, the TGI [10] was 34.3 µM and the GI50 [11] was 15 µM. For the same compound, the TGI [11] was 82 µM, the GI50 [12] was 32.4 µM and the TGI [12] was > 100 µM. For the same compound, the GI50 [13] was 21 µM, the TGI [13] was 48 µM and the GI50 [14] was 49.3 µM. For the same compound, the TGI [14] was > 100 µM, the GI50 [15] was 10.9 µM and the TGI [15] was 61.2 µM. The GI50 [16] was 31.9 µM, the TGI [16] was > 100 µM and the GI50 [17] was 23.9 µM. The TGI [17] was > 100 µM, the GI50 [18] was 31.4 µM and the TGI [18] was > 100 µM. It also gave a GI50 [19] of 17.8 µM, a TGI [19] of 64.8 µM and a GI50 [20] of 35.9 µM. The TGI [20] was > 100 µM, the GI50 [21] was 18.5 µM and the TGI [21] was 39 µM. The GI50 [22] was 17.6 µM, the TGI [22] was 45.8 µM and the GI50 [23] was 27.3 µM. The TGI [23] was 61.2 µM, the GI50 [24] was 20.5 µM and the TGI [24] was 51.2 µM. For the same compound, the GI50 [25] was 27.9 µM, the TGI [25] was > 100 µM and the GI50 [26] was 18.1 µM. The TGI [26] was 45.4 µM, the GI50 [27] was 24.8 µM and the TGI [27] was 78.6 µM. The GI50 [28] was 28 µM, the TGI [28] was > 100 µM and the GI50 [29] was 38.5 µM. The TGI [29] was > 100 µM, the GI50 [30] was 19.4 µM and the TGI [30] was 54.4 µM. The GI50 [31] was 45.2 µM, the TGI [31] was > 100 µM and the GI50 [32] was 47.2 µM. For the same compound, the TGI [32] was > 100 µM, the GI50 [33] was 37.2 µM and the TGI [33] was > 100 µM. For the same compound, the GI50 [34] was 22.4 µM, the TGI [34] was > 100 µM and the GI50 [35] was 28.9 µM. The TGI [35] was > 100 µM, the GI50 [36] was 24.8 µM and the TGI [36] was 69.7 µM. For the same compound, the GI50 [37] was 29.9 µM, the TGI [37] was > 100 µM and the GI50 [38] was 17.2 µM. The TGI [38] was 51.4 µM, the GI50 [39] was 29.2 µM and the TGI [39] was > 100 µM. The GI50 [40] was 24.5 µM, the TGI [40] was > 100 µM and the GI50 [41] was 19.2 µM. The TGI [41] was 42.2 µM, the GI50 [42] was 27.1 µM and the TGI [42] was 86.8 µM. It also gave a GI50 [43] of 21.3 µM, a TGI [43] of 57.3 µM and a GI50 [44] of 15.4 µM. For the same compound, the TGI [44] was 30.4 µM, the GI50 [45] was > 100 µM and the TGI [45] was > 100 µM. For the same compound, the GI50 [46] was 38.2 µM, the TGI [46] was > 100 µM and the GI50 [47] was 76.5 µM. For the same compound, the TGI [47] was > 100 µM, the GI50 [48] was 69.9 µM and the TGI [48] was > 100 µM. For the same compound, the GI50 [49] was 26.7 µM, the TGI [49] was > 100 µM and the GI50 [50] was 32.8 µM. The TGI [50] was 96.8 µM, the GI50 [51] was 50.6 µM and the TGI [51] was > 100 µM. For the same compound, the GI50 [52] was 17.6 µM, the TGI [52] was 35.3 µM and the GI50 [53] was 19 µM. The TGI [53] was 43.6 µM, the GI50 [54] was 17.9 µM and the TGI [54] was 39.5 µM. The GI50 [55] was 21.2 µM and the TGI [55] was > 100 µM.

From PubChem BioAssay (NCI)
